Data published in patent US7659299B2, “Compounds inhibiting the binding of sap for treating osteoarthritis” (Pentraxin Therapeutics Limited, priority 2003, dated 2010).
“And” between values parts separate entries of the source, which are not always exact repeats. Equal values may be shown once.

Assays:
SAP [1] = target: T1, SAP (Homo sapiens, UniProt P02743); assay: Isothermal calorimetry: dissociation constants between SAP and compounds; format: binding; conditions: for Kd: replicate measurements, read-out: Kd in micromoles per liter (replicate measurements)
T1 sequence (P02743 20-223): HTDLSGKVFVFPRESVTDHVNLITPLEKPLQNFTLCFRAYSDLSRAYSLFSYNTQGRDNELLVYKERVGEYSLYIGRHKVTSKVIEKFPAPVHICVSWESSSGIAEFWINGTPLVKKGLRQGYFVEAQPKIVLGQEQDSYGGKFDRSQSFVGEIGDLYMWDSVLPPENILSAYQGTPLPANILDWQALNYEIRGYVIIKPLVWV
Excerpt: Surface plasmon resonance (SPR) is a low throughput but powerfully informative method to identify compounds that are bound by, or themselves bind to SAP, either in a calcium dependent fashion or independently of calcium, for the purposes of the present invention. For example, low molecular weight compounds that inhibit binding of SAP to its macromolecular ligands, including target ligands relevant to the present invention, can be detected by their effect on the signal generated by fluid phase SAP binding to ligand immobilised on the solid phase (Example A). Furthermore, when SAP itself is immobilised on the solid phase in an SPR instrument, the interaction with it of test molecules provided in the fluid phase generates a signal that can be detected and quantified. Purified SAP immobilized within an SPR instrument gives a quantifiable signal when it is exposed to another molecule that forms a complex with the SAP, and this is distinct from the absence of such a signal if no complex is formed. […] Another low throughput but powerful direct method is isothermal calorimetry that measures the heat of interaction in solution between SAP and test compounds according to the present invention. The binding affinity can be measured precisely as a guide to potential efficacy. Typical results by this method for the dissociation constants, Kd, between SAP and various compounds are as follows: […]

SAP [2] = target: T1, SAP; assay: Inhibition of binding of 125I radiolabelled SAP to native long chromatin immobilized in microtitre plates; parameters: 5 μl of radiolabelled SAP in TN; from tissue; conditions: for Inhibition of binding of SAP to chromatin, in words: Table 2; for inhibition at 0.2 µM: compound 200 nM; for inhibition at 0.2 µM / inhibition at 2 µM / inhibition at 20 µM / inhibition at 200 µM / inhibition at 2000 µM: read-out: Percent inhibition of binding of radiolabelled SAP to immobilized native long chromatin; for inhibition at 2 µM: compound 2 μM; for inhibition at 20 µM: compound 20 μM; for inhibition at 200 µM: compound 200 μM
SAP [3] = target: T1, SAP; assay: Inhibition of binding of 125I radiolabelled SAP to Neisseria meningitidis immobilized in microtitre plates; parameters: 5 μl of radiolabelled SAP in TN; from tissue; conditions: for inhibition at 20 µM: compound 20 μM; for inhibition at 20 µM / inhibition at 2000 µM / inhibition at 0.2 µM / inhibition at 2 µM / inhibition at 200 µM: read-out: Percent inhibition of binding of radiolabelled SAP to immobilized Neisseria meningitidis; for inhibition at 2000 µM: compound 2 mM; for Inhibition of binding of SAP to meningococci, in words: summary of Table 1; for inhibition at 0.2 µM: compound 200 nM; for inhibition at 2 µM: compound 2 μM; for inhibition at 200 µM: compound 200 μM
Protocol: A suspension of heat killed Neisseria meningitidis at 1×10^8 organisms per ml in PBS was dispensed to polystyrene microtitre plates at 50 μl volumes per well, and left overnight at 4° C. All wells were then washed three times with 200 μl volumes of PBS containing 0.05% v/v Tween 20, prior to equilibration for 2 min with 0.01M Tris buffered 0.14M NaCl/0.002M CaCl2 at pH 8.0 (TC buffer), containing 4% w/v BSA and 0.05%/v Tween 20 (TCBT buffer). The wells were then emptied before adding to each one the following reagents. […] For background, non-specific, non calcium dependent, binding in the presence of EDTA: 5 μl radiolabelled SAP in TN and 45 μl 0.01M Tris buffered 0.14M NaCl at pH 8.0 containing 11.1 mM EDTA, 4.4% w/v BSA and 0.06% w/v Tween 20 (TEBT buffer) to provide final concentrations of EDTA, 10 mM; BSA, 4%; Tween 20, 0.05%. […] All wells were then incubated at room temperature for 2 h before being washed three times with 200 μl volumes of TCBT, allowed to dry for 1 h at room temperature, and bound radiolabelled SAP was then counted.
The capacity of the compounds tested to inhibit binding of SAP to meningococci is expressed as the percentage by which SAP binding was reduced compared to binding in the absence of any inhibitor (Table 1).

SAP [4] = target: T1, SAP; assay: Inhibition of binding of 125I radiolabelled SAP to influenza virus immobilized in microtitre plates; parameters: 5 μl of radiolabelled SAP in TN; from tissue; conditions: for inhibition at 20 µM: compound 20 μM; for inhibition at 20 µM / inhibition at 200 µM / inhibition at 0.2 µM / inhibition at 2 µM / inhibition at 2000 µM: read-out: Percent inhibition of binding of radiolabelled SAP to immobilized influenza virus; for inhibition at 200 µM: compound 200 μM; for Inhibition of binding of SAP to immobilised influenza virus, in words: summary of Table 3; for inhibition at 0.2 µM: compound 200 nM; for inhibition at 2 µM: compound 2 μM; for inhibition at 2000 µM: compound 2 mM
Protocol: A concentrated suspension of purified influenza virus A/Shanghai/24/90 at 10 mg protein per ml in PBS was diluted 1:50 in PBS and then dispensed to polystyrene microtitre plates at 50 μl volumes per well, and left overnight at 4° C. All wells were then emptied before blocking by addition to each well of 200 μl of 2% w/v BSA in PBS and incubation at room temperature for 1 h. All wells were then washed three times with 200 μl volumes of PBS containing 0.05% v/v Tween 20, prior to equilibration for 2 min with 0.01M Tris buffered 0.14M NaCl/0.002M CaCl2 at pH 8.0 (TC buffer), containing 4% w/v BSA and 0.05% v/v Tween 20 (TCBT buffer). The wells were then emptied before adding to each one the following reagents. […] For background, non-specific, non calcium dependent, binding in the presence of EDTA: 5 μl radiolabelled SAP in TN and 45 μl 0.01M Tris buffered 0.14M NaCl at pH 8.0 containing 11.1 mM EDTA, 4.4% w/v BSA and 0.06% w/v Tween 20 (TEBT buffer) to provide final concentrations of EDTA, 10 mM; BSA, 4%; Tween 20, 0.05%. […] All wells were then incubated at room temperature for 2 h before being washed three times with 200 μl volumes of TCBT, allowed to dry for 1 h at room temperature, and bound radiolabelled SAP was then counted. The compounds tested in the experiment shown here were the same as those specified in Example B above.
The capacity of the compounds tested to inhibit binding of SAP to the immobilised influenza virus is expressed as the percentage by which SAP binding was reduced compared to binding in the absence of any inhibitor (Table 3).

SAP [5] = target: T1, SAP; assay: Surface plasmon resonance: calcium dependent binding of SAP to immobilised synthetic Aβ-42 amyloid fibrils
Excerpt: Surface plasmon resonance (SPR) is a low throughput but powerfully informative method to identify compounds that are bound by, or themselves bind to SAP, either in a calcium dependent fashion or independently of calcium, for the purposes of the present invention. For example, low molecular weight compounds that inhibit binding of SAP to its macromolecular ligands, including target ligands relevant to the present invention, can be detected by their effect on the signal generated by fluid phase SAP binding to ligand immobilised on the solid phase (Example A). Furthermore, when SAP itself is immobilised on the solid phase in an SPR instrument, the interaction with it of test molecules provided in the fluid phase generates a signal that can be detected and quantified. Purified SAP immobilized within an SPR instrument gives a quantifiable signal when it is exposed to another molecule that forms a complex with the SAP, and this is distinct from the absence of such a signal if no complex is formed. […] Another low throughput but powerful direct method is isothermal calorimetry that measures the heat of interaction in solution between SAP and test compounds according to the present invention. The binding affinity can be measured precisely as a guide to potential efficacy. Typical results by this method for the dissociation constants, Kd, between SAP and various compounds are as follows:
Synthetic Aβ-42 amyloid fibrils (28) were covalently immobilised on the reactant surface of the Fisons IAsys surface plasmon resonance instrument, and then exposed to isolated SAP (32) in solution in Tris-buffered physiological saline in the absence of calcium (shown as TN/N in the Figures). No binding of SAP occurred and thus no signal was generated. Introduction of calcium allowed the SAP to bind specifically to the immobilised amyloid fibrils, generating a readily detectable signal (FIG. 1). […]

Row | Compound | Kd (SAP [1]) | Inhibition of binding of SAP to chromatin, in words (SAP [2]) | inhibition at 0.2 µM (SAP [2]) [%] | inhibition at 2 µM (SAP [2]) [%] | inhibition at 20 µM (SAP [2]) [%] | inhibition at 200 µM (SAP [2]) [%] | inhibition at 20 µM (SAP [3]) [%] | inhibition at 2000 µM (SAP [3]) [%] | Inhibition of binding of SAP to meningococci, in words (SAP [3]) | inhibition at 20 µM (SAP [4]) [%] | inhibition at 200 µM (SAP [4]) [%] | Inhibition of binding of SAP to immobilised influenza virus, in words (SAP [4]) | inhibition at 2000 µM (SAP [2]; compound 2 mM) [%] | inhibition at 0.2 µM (SAP [3]) [%] | inhibition at 2 µM (SAP [3]) [%] | inhibition at 200 µM (SAP [3]) [%] | inhibition at 0.2 µM (SAP [4]) [%] | inhibition at 2 µM (SAP [4]) [%] | inhibition at 2000 µM (SAP [4]) [%] | other results
1 | CC(=O)N1CCC[C@@H]1C(=O)O [N-acetyl-D-proline] | 16 µM and 23 µM and 17 µM | – | – | – | – | – | – | – | – | – | – | – | – | – | – | – | – | – | – | –
2 | C[N+](C)(C)CCOP(=O)([O-])O [Phosphocholine, reference compound] | – | virtually no effect | 2 | 0 | 0 | 3 | 4 | 24 | virtually no effect | 5 | 5 | virtually no effect | – | – | – | – | – | – | – | inhibition at 2000 µM (SAP [2]): 19%; Kd in micromoles per liter (replicate measurements) (SAP [1]): No binding
3 | NCCOP(=O)(O)O [Phosphoethanolamine, reference compound] | 36 µM and 27 µM and 48 µM | inhibition at high concentration, but only modest effects when diluted | 3 | 9 | 36 | 59 | 32 | 95 | inhibition at high concentration, but only modest effects when diluted | 42 | 51 | inhibition at high concentration, but only modest effects when diluted | 94 | 7 | 18 | 41 | 1 | 8 | 69 | –
4 | C[C@H](CS)C(=O)N1CCC[C@@H]1C(=O)O [Ro-15-3479, 1-[(S)-3-Mercapto-2-methylpropionyl]-D-proline] | – | – | – | – | – | – | 50 | – | – | 40 | 51 | – | – | 3 | 42 | 54 | 12 | 30 | – | Effect on SPR signal reflecting ligand binding by SAP (SAP [5]; 50 μmol/l, added after SAP had bound, regenerated surface (FIG. 3)): completely reversed; SPR signal on addition of calcium after SAP and compound (SAP [5]; 100 μmol/l, added before calcium (FIG. 2)): no signal; Effect on binding of SAP to immobilised amyloid fibrils and the corresponding SPR signal (SAP [5]; 500 μmol/l in TC buffer, added after SAP had bound (FIG. 1)): completely reversed the binding of SAP
5 | O=C(O)[C@H]1CCCN1C(=O)COc1ccc(OCC(=O)N2CCC[C@@H]2C(=O)O)cc1 [Ro-64-2856, (R)-1-[[4-[2-[(R)-2-Carboxy-pyrrolidin-1-yl]-2-oxo-ethoxy]-phenoxy]-acetyl]-pyrrolidine-2-carboxylic acid] | 0.019 µM and 0.02 µM | – | 1 | 36 | 56 | 75 | 74 | 100 | – | 82 | 84 | – | 91 | 0 | 65 | 65 | 3 | 77 | 87 | –
6 | O=C(O)[C@H]1CCCN1C(=O)Cc1ccc(CC(=O)N2CCC[C@@H]2C(=O)O)c2ccccc12 [Ro-64-5607, (R)-1-[[4-[2-[(R)-2-Carboxy-pyrrolidin-1-yl]-2-oxo-ethyl]-naphthalen-1-yl]-acetyl]-pyrrolidine-2-carboxylic acid] | – | – | 15 | 35 | 77 | 96 | 89 | – | – | 95 | 94 | – | 100 | 13 | 69 | – | 4 | 64 | 98 | –
